These results are taken from patent US20050187462A1, “Dynamic contrast enhanced imaging using a mamillary distributed parameter model” (priority 2004, published 2005).

The data set in a line: Prostate case study: DCE CT tissue concentration-time curve fitted to 2-, 3- and 4-compartment mamillary distributed-parameter models. Type of data set: in vivo, patient. To be noted: value (percent CV); for t1: vascular transit time. From the text:
It is instructive to apply the present mamillary model to a tumor study case to further illustrate some physiological aspects of the model, and also for comparison with another model. Ca(t) was sampled at the iliac arteries simultaneously in the same CT scan as the prostate tissue concentration-time curve, Ctiss(t). The contrast medium used was the x-ray dye lopamidol and the region of interest for Ctiss was drawn over the prostate gland. Example imaging and patient protocols that were used are, for example, expounded upon in T. S. Koh, V. Zeman, J. Darko, T. Lee, M. F. Milosevic, M. Haider, P. Warde, and I. W. T. Yeung, “The inclusion of capillary distribution in the adiabatic tissue homogeneity model of blood flow”, Phys. Med. Biol., vol. 46, pp. 1519-1538, 2001.
The ‘goodness-of-fit’ between model and data can be given by the χ^2 statistic as detailed in equation (11).
A 2-compartment distributed-parameter model has 4 adjustable parameters (i.e F, t1, k12 and k21), and each additional compartment introduces two additional parameters given by the rate constants.
The tissue concentration-time curve Ctiss(t) was sampled at a region of interest over the prostate tumor. […] A test statistic to compare the goodness-of-fit of a more complex model (χ^2c) with that of a less complex (reduced) model (χ^2r) can be given by equation (12), namely [formula] which follows the F-distribution. The degrees of freedom dfr and dfc are those associated with the reduced and complex models, respectively. […] Correspondingly, large values of F* would justify the more complex model.
The fitted Ctiss(t) curves using 2-, 3- and 4-compartment distributed-parameter models are shown in FIG. 5 and their corresponding impulse residue functions are shown in FIG. 6. The values for the parameters adjusted in the model fittings together with their error estimates (as percent CVi) are listed in Table 1.

Setting [1] is: 2-compartment model, rate constant for tracer transfer.
The mark [2] stands for this setting: 3-compartment model, rate constant for tracer transfer.
The mark [3] stands for this setting: 4-compartment model, rate constant for tracer transfer.

With `C[C@H](O)C(=O)Nc1c(I)c(C(=O)NC(CO)CO)c(I)c(C(=O)NC(CO)CO)c1I` [lopamidol], under setting [1], the K12 is on record as 0.744 (4) min^−1 and the K21 was 2.183 (4) min^−1. For the setting “2-compartment model”, the t1 is reported as 0.717 (3) min. Under setting [2], the K12 is reported as 1.581 (17) min^−1, the K13 is reported as 0.259 (28) min^−1, the K21 is on record as 1.854 (15) min^−1 and the K31 is reported as 0.818 (25) min^−1. Besides, the t1 (3-compartment model) is recorded as 0.688 (9) min. Besides, under setting [3], the K12 was 1.579 (20) min^−1, the K13 is listed as 0.264 (36) min^−1, the K14 was 0.000 (53) min^−1 and the K21 was 1.853 (17) min^−1. Also, under setting [3], the K31 is 0.816 (32) min^−1 and the K41 is given as 0.000 (44) min^−1. The t1 (4-compartment model) is 0.688 (11) min.
